Measured values published in the kinase profiling compilation of Christmann-Franck et al. (2016).

Columns and labels:
[1] = target: NLK (human) (UniProt Q9UBE8); assay: KINOMEscan competition binding; details: compound 10.0 µM
[2] = test system: ABL1 (human), P00519 [E255K]; assay: KINOMEscan competition binding; details: compound 10.0 µM
[3] = test system: ABL1 (human), P00519 [F317I]; assay: KINOMEscan competition binding; details: compound 10.0 µM
[4] = target: MUSK (human) (UniProt O15146); assay: KINOMEscan competition binding; details: compound 10.0 µM
[5] = target: CDK15 (human) (UniProt Q96Q40); assay: KINOMEscan competition binding; details: compound 10.0 µM
[6] = target: INSRR (human) (UniProt P14616); assay: KINOMEscan competition binding; details: compound 10.0 µM
[7] = target: CDK9 (human) (UniProt P50750); assay: KINOMEscan competition binding; details: compound 10.0 µM
[8] = target: RAF1 (human) (UniProt P04049); assay: KINOMEscan competition binding; details: compound 10.0 µM
[9] = target: ABL2 (human) (UniProt P42684); assay: KINOMEscan competition binding; details: compound 10.0 µM
[10] = target: MAPK11 (human) (UniProt Q15759); assay: KINOMEscan competition binding; details: compound 10.0 µM
[11] = target: EPHA8 (human) (UniProt P29322); assay: KINOMEscan competition binding; details: compound 10.0 µM
[12] = target: MAPK14 (human) (UniProt Q16539); assay: KINOMEscan competition binding; details: compound 10.0 µM
[13] = target: FGFR2 (human) (UniProt P21802); assay: KINOMEscan competition binding; details: compound 10.0 µM
[14] = target: TAOK1 (human) (UniProt Q7L7X3); assay: KINOMEscan competition binding; details: compound 10.0 µM
[15] = target: SRMS (human) (UniProt Q9H3Y6); assay: KINOMEscan competition binding; details: compound 10.0 µM
[16] = target: TNIK (human) (UniProt Q9UKE5); assay: KINOMEscan competition binding; details: compound 10.0 µM
[17] = target: MAPK13 (human) (UniProt O15264); assay: KINOMEscan competition binding; details: compound 10.0 µM
[18] = target: CDK19 (human) (UniProt Q9BWU1); assay: KINOMEscan competition binding; details: compound 10.0 µM
[19] = target: TXK (human) (UniProt P42681); assay: KINOMEscan competition binding; details: compound 10.0 µM
[20] = test system: RET (human), P07949 [M918T]; assay: KINOMEscan competition binding; details: compound 10.0 µM
[21] = test system: RET (human), P07949 [V804L]; assay: KINOMEscan competition binding; details: compound 10.0 µM
[22] = target: FYN (human) (UniProt P06241); assay: KINOMEscan competition binding; details: compound 10.0 µM
[23] = test system: EGFR (human), P00533 [G719S]; assay: KINOMEscan competition binding; details: compound 10.0 µM
[24] = test system: FLT3 (human), P36888 [N841I]; assay: KINOMEscan competition binding; details: compound 10.0 µM
[25] = target: TEK (human) (UniProt Q02763); assay: KINOMEscan competition binding; details: compound 10.0 µM
[26] = target: FLT3 (human) (UniProt P36888); assay: KINOMEscan competition binding; details: compound 10.0 µM
[27] = target: FGFR1 (human) (UniProt P11362); assay: KINOMEscan competition binding; details: compound 10.0 µM
[28] = target: STK35 (human) (UniProt Q8TDR2); assay: KINOMEscan competition binding; details: compound 10.0 µM
[29] = target: IKBKB (human) (UniProt O14920); assay: KINOMEscan competition binding; details: compound 10.0 µM
[30] = target: MAP3K3 (human) (UniProt Q99759); assay: KINOMEscan competition binding; details: compound 10.0 µM
[31] = target: SLK (human) (UniProt Q9H2G2); assay: KINOMEscan competition binding; details: compound 10.0 µM
[32] = target: MKNK2 (human) (UniProt Q9HBH9); assay: KINOMEscan competition binding; details: compound 10.0 µM
[33] = target: LTK (human) (UniProt P29376); assay: KINOMEscan competition binding; details: compound 10.0 µM
[34] = target: EPHA2 (human) (UniProt P29317); assay: KINOMEscan competition binding; details: compound 10.0 µM
[35] = target: MST4 (human) (UniProt Q9P289); assay: radiometric filter-binding kinase assay
[36] = target: TEK (human) (UniProt Q02763); assay: radiometric filter-binding kinase assay
[37] = target: EPHA4 (human) (UniProt P54764); assay: radiometric filter-binding kinase assay
[38] = test system: PAK2 (human), Q13177 [T402E]; assay: radiometric filter-binding kinase assay
[39] = target: CHEK2 (human) (UniProt O96017); assay: radiometric filter-binding kinase assay
Sequence of CHEK2 (human) (O96017 whole entry, looked up): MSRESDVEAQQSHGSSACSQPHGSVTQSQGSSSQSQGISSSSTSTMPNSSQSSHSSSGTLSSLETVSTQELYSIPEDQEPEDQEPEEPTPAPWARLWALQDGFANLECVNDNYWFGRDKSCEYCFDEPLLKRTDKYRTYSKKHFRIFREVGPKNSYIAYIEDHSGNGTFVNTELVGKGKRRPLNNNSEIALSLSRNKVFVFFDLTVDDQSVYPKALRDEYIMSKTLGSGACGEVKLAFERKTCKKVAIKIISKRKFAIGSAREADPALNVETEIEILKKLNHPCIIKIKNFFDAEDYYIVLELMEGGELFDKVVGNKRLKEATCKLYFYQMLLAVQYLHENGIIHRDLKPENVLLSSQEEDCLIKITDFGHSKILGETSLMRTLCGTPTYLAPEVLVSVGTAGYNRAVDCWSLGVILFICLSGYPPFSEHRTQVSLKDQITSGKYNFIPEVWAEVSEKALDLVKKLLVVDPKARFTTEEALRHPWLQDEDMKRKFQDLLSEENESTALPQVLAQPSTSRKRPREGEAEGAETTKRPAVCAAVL

Sequence of EPHA4 (human) (P54764 whole entry, looked up): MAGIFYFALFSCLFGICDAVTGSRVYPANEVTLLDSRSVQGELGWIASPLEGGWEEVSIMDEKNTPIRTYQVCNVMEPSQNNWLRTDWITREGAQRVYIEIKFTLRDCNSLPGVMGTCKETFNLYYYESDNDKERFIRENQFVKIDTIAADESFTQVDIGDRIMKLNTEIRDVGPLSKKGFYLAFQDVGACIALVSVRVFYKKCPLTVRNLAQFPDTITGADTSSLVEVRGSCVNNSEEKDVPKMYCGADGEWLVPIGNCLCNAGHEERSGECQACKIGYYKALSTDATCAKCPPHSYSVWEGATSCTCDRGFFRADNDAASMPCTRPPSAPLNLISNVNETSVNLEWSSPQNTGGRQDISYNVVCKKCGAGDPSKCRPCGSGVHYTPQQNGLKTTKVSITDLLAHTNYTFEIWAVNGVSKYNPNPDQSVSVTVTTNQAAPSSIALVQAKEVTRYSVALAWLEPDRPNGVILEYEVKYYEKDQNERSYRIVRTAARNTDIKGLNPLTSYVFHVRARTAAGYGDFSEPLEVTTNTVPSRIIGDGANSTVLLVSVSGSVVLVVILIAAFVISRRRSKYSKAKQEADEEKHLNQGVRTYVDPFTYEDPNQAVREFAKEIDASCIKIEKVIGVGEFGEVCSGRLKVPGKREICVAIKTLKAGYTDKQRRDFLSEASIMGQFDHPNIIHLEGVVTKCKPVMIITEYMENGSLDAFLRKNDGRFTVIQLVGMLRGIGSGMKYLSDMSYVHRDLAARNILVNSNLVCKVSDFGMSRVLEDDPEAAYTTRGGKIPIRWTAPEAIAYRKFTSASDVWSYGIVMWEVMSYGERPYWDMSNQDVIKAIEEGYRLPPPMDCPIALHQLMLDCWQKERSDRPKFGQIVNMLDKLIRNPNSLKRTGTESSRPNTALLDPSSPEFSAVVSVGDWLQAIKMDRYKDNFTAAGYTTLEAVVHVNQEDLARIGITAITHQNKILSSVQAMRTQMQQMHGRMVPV
Sequence of TEK (human) (Q02763 whole entry, looked up): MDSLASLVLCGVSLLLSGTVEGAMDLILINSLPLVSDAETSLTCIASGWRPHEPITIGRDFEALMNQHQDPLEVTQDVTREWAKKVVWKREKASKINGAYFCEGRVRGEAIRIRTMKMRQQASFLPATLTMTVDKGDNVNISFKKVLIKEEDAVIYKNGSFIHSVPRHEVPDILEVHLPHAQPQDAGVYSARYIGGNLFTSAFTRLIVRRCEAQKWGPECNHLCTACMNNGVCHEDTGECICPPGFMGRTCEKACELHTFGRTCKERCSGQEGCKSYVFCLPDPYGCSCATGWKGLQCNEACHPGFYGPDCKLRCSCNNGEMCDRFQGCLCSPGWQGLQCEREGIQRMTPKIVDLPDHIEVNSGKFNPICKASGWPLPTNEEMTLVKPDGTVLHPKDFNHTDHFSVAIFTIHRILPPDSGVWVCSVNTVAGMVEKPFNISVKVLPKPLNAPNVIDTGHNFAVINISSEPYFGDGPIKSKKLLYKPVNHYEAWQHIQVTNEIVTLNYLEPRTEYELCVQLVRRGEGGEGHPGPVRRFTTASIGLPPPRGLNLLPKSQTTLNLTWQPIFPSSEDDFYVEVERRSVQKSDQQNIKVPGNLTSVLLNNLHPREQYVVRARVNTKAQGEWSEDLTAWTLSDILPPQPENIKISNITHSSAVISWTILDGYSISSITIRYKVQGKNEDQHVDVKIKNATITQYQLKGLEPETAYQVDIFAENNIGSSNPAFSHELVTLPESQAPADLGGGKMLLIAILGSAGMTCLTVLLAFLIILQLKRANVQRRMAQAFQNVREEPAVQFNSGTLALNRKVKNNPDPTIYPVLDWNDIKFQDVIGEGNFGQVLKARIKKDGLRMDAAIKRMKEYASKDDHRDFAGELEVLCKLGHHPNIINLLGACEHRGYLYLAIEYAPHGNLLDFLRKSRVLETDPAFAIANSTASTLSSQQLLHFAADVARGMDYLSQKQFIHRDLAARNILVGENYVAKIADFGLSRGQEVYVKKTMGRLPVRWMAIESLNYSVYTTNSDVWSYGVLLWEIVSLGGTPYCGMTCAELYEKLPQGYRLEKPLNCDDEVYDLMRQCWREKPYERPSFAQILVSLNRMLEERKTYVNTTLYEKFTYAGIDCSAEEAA
Sequence of PAK2 (human), Q13177 [T402E] (Q13177 whole entry T402E, looked up): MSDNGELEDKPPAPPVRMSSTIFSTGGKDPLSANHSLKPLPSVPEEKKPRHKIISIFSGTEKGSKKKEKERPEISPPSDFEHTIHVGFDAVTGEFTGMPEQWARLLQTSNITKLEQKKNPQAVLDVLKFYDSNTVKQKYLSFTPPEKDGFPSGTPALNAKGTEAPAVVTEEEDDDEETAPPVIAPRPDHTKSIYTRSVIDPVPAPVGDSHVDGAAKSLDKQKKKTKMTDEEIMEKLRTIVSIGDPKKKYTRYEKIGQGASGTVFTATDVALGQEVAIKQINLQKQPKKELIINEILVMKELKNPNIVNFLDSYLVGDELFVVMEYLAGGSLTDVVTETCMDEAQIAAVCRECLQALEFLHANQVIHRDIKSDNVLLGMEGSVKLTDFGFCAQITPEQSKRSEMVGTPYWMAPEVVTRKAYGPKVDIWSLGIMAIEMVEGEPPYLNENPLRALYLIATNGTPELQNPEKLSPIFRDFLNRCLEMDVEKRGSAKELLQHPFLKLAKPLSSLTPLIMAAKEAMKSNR
Sequence of MST4 (human) (Q9P289 whole entry, looked up): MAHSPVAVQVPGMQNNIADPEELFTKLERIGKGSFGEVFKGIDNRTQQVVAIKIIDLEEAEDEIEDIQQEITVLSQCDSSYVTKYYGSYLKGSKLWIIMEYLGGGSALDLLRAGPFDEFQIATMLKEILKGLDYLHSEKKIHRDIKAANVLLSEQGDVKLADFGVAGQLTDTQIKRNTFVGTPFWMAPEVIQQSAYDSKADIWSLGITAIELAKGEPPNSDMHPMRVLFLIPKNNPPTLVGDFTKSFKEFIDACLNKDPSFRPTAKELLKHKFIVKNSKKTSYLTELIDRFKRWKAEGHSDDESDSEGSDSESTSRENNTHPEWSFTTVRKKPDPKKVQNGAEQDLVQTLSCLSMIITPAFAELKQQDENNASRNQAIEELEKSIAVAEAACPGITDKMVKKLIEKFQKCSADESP
Sequence of ABL1 (human), P00519 [E255K] (P00519 whole entry E255K, looked up): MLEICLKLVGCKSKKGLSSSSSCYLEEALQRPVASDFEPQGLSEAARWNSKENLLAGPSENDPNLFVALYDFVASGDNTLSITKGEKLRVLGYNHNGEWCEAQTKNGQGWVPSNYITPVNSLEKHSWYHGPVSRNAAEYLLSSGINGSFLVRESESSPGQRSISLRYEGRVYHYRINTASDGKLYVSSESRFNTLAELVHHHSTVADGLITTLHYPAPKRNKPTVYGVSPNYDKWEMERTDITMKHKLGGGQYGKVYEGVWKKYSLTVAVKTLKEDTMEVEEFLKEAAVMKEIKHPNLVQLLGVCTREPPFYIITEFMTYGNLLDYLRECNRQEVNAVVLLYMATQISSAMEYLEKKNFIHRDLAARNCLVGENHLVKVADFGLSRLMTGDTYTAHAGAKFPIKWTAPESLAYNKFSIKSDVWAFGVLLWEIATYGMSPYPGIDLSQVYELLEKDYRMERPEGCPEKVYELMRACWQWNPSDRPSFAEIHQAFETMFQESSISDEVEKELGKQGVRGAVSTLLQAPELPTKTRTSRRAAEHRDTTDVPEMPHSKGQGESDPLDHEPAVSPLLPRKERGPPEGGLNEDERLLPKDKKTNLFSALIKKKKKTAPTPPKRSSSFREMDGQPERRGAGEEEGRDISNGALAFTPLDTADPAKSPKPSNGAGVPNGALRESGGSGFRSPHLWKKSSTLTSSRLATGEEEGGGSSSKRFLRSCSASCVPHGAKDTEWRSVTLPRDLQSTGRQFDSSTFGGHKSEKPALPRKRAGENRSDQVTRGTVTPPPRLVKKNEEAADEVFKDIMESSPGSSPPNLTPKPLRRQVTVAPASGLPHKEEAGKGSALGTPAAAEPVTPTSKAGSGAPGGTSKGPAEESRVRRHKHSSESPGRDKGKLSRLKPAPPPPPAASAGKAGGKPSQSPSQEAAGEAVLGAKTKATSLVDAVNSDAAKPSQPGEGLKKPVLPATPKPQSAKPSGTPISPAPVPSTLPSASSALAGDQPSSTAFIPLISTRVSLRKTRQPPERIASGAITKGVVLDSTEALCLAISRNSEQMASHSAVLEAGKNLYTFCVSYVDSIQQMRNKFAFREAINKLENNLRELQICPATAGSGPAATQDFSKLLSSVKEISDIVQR
Sequence of ABL1 (human), P00519 [F317I] (P00519 whole entry F317I, looked up): as the sequence (P00519 whole entry E255K, looked up) above, with K255E, F317I counted along it

For CCN1CCN(Cc2ccc(NC(=O)c3ccc(C)c(Oc4ccnc5[nH]ccc45)c3)cc2C(F)(F)F)CC1, the kinase still bound, per cent of control [1] was 14%, the kinase still bound, per cent of control [2] was 1.2% and the kinase still bound, per cent of control [3] was 0.05%. The kinase still bound, per cent of control [4] was 0.2%, the residual activity [5] was 6% and the kinase still bound, per cent of control [6] was 23%. It also gave a residual activity [7] of 5.8%, a kinase still bound, per cent of control [8] of 7% and a kinase still bound, per cent of control [9] of 0.6%. The kinase still bound, per cent of control [10] was 0%, the kinase still bound, per cent of control [11] was 0.1% and the kinase still bound, per cent of control [12] was 0%. For the same compound, the kinase still bound, per cent of control [13] was 1.4%, the kinase still bound, per cent of control [14] was 3% and the kinase still bound, per cent of control [15] was 4.6%. It also gave a kinase still bound, per cent of control [16] of 8.2%, a kinase still bound, per cent of control [17] of 0.55% and a residual activity [18] of 0.1%. The kinase still bound, per cent of control [19] was 12%, the kinase still bound, per cent of control [20] was 0% and the kinase still bound, per cent of control [21] was 0.8%. It also gave a kinase still bound, per cent of control [22] of 1.6%, a kinase still bound, per cent of control [23] of 14% and a kinase still bound, per cent of control [24] of 0%. It also gave a kinase still bound, per cent of control [25] of 0%, a kinase still bound, per cent of control [26] of 0.15% and a kinase still bound, per cent of control [27] of 1.7%. The kinase still bound, per cent of control [28] was 3%, the kinase still bound, per cent of control [29] was 24% and the kinase still bound, per cent of control [30] was 12%. The kinase still bound, per cent of control [31] was 2%, the kinase still bound, per cent of control [32] was 4.2% and the kinase still bound, per cent of control [33] was 1.2%. For the same compound, the kinase still bound, per cent of control [34] was 3.1%, the residual activity ([35]; compound 0.1 µM) was 95% and the residual activity ([35]; compound 1.0 µM) was 78%. The residual activity ([35]; compound 10.0 µM) was 32.1%, the residual activity ([36]; compound 0.1 µM) was 95.2% and the residual activity ([36]; compound 1.0 µM) was 91.2%. It also gave a residual activity ([36]; compound 10.0 µM) of 60.4%, a residual activity ([37]; compound 0.1 µM) of 96.3% and a residual activity ([37]; compound 1.0 µM) of 28.7%. It also gave a residual activity ([37]; compound 10.0 µM) of 7.58%, a residual activity ([38]; compound 0.1 µM) of 116% and a residual activity ([38]; compound 1.0 µM) of 100%. For the same compound, the residual activity ([38]; compound 10.0 µM) was 68.6%, the residual activity ([39]; compound 0.1 µM) was 117% and the residual activity ([39]; compound 1.0 µM) was 103%. It also gave a residual activity ([39]; compound 10.0 µM) of 67.9%.
